{"source": "patent US7572439B2", "about": "“Enzyme disruption of bacterial biofilms” (priority 2002, dated 2009)", "key": {"SA5 [1]": {"system": "SA5", "test": "Long-term leaching of lysostaphin from coated catheters", "assay_type": "cell-based, S. aureus", "description": "Long-term Leaching of Lysostaphin. Ten lysostaphin-coated catheters (10 mg/ml coating concentration) were incubated with PBS for 2 hours at 37° C. The catheters were then washed and two of the ten lysostaphin coated catheters were incubated with 200 μl of a 5×10^4 CFU/ml solution of SA5 for 2 hours at 37° C. The effluent was streaked on to blood agar plates and incubated at 37° C. overnight. The rest of the catheters were incubated with fresh PBS and left at 37° C. overnight. The following day, all eight catheters were washed out and two of the catheters were incubated with bacteria as above. The other six catheters were again incubated with fresh PBS and left at 37° C. overnight. This procedure was repeated everyday for four days."}, "S. aureus biofilms": {"system": "S. aureus biofilms", "test": "Biofilm assay: S. aureus biofilms in 96 well plates or plate inserts, safranin stain or SEM", "assay_type": "cell-based", "settings": "50 μg/ml in PBS, three hours"}, "S. aureus strain SA5": {"system": "S. aureus strain SA5", "test": "Killing of bacteria in lysostaphin-coated polystyrene wells", "assay_type": "cell-based", "settings": "for CFU (n = 2): Table 13, Polystyrene", "description": "Six wells were incubated with 300 μl of either 10 mg/ml, 1 mg/ml or 100 μg/ml of lysostaphin diluted in PBS. All the samples were done in duplicates. The plate was allowed to incubate overnight at 4° C. The following morning the wells were washed with 1 ml of PBS ten times, using vacuum suction to clean out the wells. S. aureus strain SA5 was diluted in PBS to a percent transmittance of 40. A 1:10,000 dilution of this solution was made, and 300 μl was added to each well. The plates were put in a shaking incubator at 75 rpm for two hours at 37° C. After two hours, 40 μl from each well was taken out and plated onto a blood agar plate and put in the incubator overnight at 37° C. The colonies on the plates were counted the following morning.\nCoating of polystyrene wells. Wells were coated with 300 μl of 10 mg/ml, 1 mg/ml or 0.1 mg/ml of lysostaphin diluted in PBS. The plate was incubated overnight at 4° C. Wells were washed with 1 ml of PBS ten times, and washes were removed by vacuum suction. 300 μl of a 5×10^4 CFU/ml solution of S. aureus was added to each well. The plate was shaken at 75 rpm for two hours at 37° C. 40 μl from each well was then removed and streaked onto a blood agar plate and incubated overnight at 37° C."}, "[2]": {"system": "biofilms of S. aureus SA113", "test": "Kinetic effect on established biofilms: absorbance at 650 nm and safranin staining", "assay_type": "cell-based", "settings": "for absorbance of biofilms at 650 nM: 6.25 μg/ml in PBS", "description": "Oxacillin and vancomycin have often been used in antibiotic susceptibility studies of S. aureus biofilms. […] Twenty four-hour biofilms in polystyrene 96-well tissue culture plates were treated with serial dilutions of lysostaphin, oxacillin, and vancomycin (FIG. 7).\nIn order to examine the kinetic effect of lysostaphin, oxacillin and vancomycin on biofilms, the absorbance of established biofilms in a 96-well tissue culture plate was measured over time (0-3 hrs and 24 hrs). Tissue culture wells containing biofilms of S. aureus SA113 were incubated with serial dilutions of lysostaphin ([…]), oxacillin ([…]), or vancomycin ([…]) for 24 hours, and the absorbance at 650 nm was monitored every 20 minutes for the first 3 hours and then again at 24 hours. The absorbance of the lysostaphin-treated biofilms dropped from approximately 0.35 at time zero to 0.125 after 3 hours of treatment and dropped to near base line (0.04) by 24 hrs when treated with a dose of lysostaphin of 6.25 μg/ml in PBS (FIG. 7). […] Since antimicrobials like oxacillin or vancomycin are effective against actively metabolizing bacteria, a similar experiment was conducted but the biofilms were incubated with the three anti-microbials in bacterial media (TSB). Very similar results were also found when the assay was conducted in TSB rather than PBS.\nThe capacity of the three agents to disrupt S. aureus biofilms in polystyrene wells can be visualized by comparing the staining intensity of treated wells versus control (buffer-treated) wells."}, "SA5 [3]": {"system": "SA5", "test": "Adherence of bacteria to catheters", "assay_type": "cell-based, S. aureus", "description": "Adherence of Bacteria to Catheters. Lysostaphin coated catheters were placed in 2 ml of a 0.1 mg/ml solution of lysostaphin for 2 hours with shaking at 37° C. to coat the outside of the catheter. They were then washed and placed in a 5×10^4 CFU/ml solution of SA5 and incubated for 3 hours at 37° C. 40 μl of the bacterial solution was streaked on to blood agar plates and incubated at 37° C. overnight. The catheters were incubated in 2 ml TSB overnight at 37° C. and examined for growth. Untreated catheters were washed with 50 ml PBS and then inoculated with 120 μl of a 5×10^6 CFU/ml solution of bacteria and incubated for 2 or 24 hours. The catheter effluent was then streaked onto blood agar plates and placed at 37° C. overnight. The catheters were washed with 50 ml PBS and the last ml of wash was collected, and 100 μl was streaked onto blood agar plates and incubated at 37° C. overnight. The catheters were then incubated in 1 ml TSB at 37° C. overnight and observed for growth."}}, "data": [{"substance": "lysostaphin", "values": [{"measurement": "log reduction in bacteria recovered vs uncoated catheters", "setting": "SA5 [1]; 10 mg/ml coated catheters, two-hour incubation with PBS", "result": 2.8, "unit": "log"}, {"measurement": "log reduction in bacterial counts", "setting": "SA5 [1]; PBS incubation 24 hours", "result": 1.8, "unit": "log"}, {"measurement": "log reduction in bacterial counts", "setting": "SA5 [1]; PBS incubation 48 hours", "result": 1.5, "unit": "log"}, {"measurement": "log reduction in bacterial counts", "setting": "SA5 [1]; PBS incubation 72 hours", "result": 0.7, "unit": "log"}, {"measurement": "log reduction in bacterial counts", "setting": "SA5 [1]; PBS incubation 96 hours", "result": 0.3, "unit": "log"}, {"measurement": "biofilm disruption (safranin stain)", "setting": "S. aureus biofilms; S. aureus strain MBT 5040 (MRSA), room temperature", "result": "completely disrupted"}, {"measurement": "biofilm disruption of lysostaphin-resistant strains (safranin stain)", "setting": "S. aureus biofilms; lysostaphin-resistant S. aureus", "result": "failure of lysostaphin to disrupt biofilms"}, {"measurement": "CFU (n = 2)", "setting": "S. aureus strain SA5; coating concentration 0.1 mg/ml", "result": 3, "unit": "CFU"}, {"measurement": "CFU (n = 2)", "setting": "S. aureus strain SA5; coating concentration 1 mg/ml", "result": 1, "unit": "CFU"}, {"measurement": "CFU (n = 2)", "setting": "S. aureus strain SA5; coating concentration 10 mg/ml", "result": 1, "unit": "CFU"}, {"measurement": "log reduction in bacterial counts", "setting": "S. aureus strain SA5; bacteria added directly to the 0.1 mg/mL coated wells", "result": 2.4, "unit": "log"}, {"measurement": "reduction in bacterial counts", "setting": "S. aureus strain SA5; lysostaphin coated polystyrene wells vs control wells", "result": 99.5, "unit": "%"}, {"measurement": "CFU's remaining in lysostaphin coated wells, on average", "setting": "S. aureus strain SA5; polystyrene wells, 610 CFU's in control wells", "result": 3, "unit": "CFU"}, {"measurement": "absorbance of biofilms at 650 nM", "setting": "[2]; 24 hrs", "result": "~0.04"}, {"measurement": "absorbance of biofilms at 650 nM", "setting": "[2]; after 3 hours", "result": 0.125}, {"measurement": "absorbance of biofilms at 650 nM", "setting": "[2]; time zero", "result": "approximately 0.35"}, {"measurement": "lowest concentration that cleared biofilms (safranin)", "setting": "[2]; in PBS, 24 hours", "result": 0.8, "unit": "µg/mL"}, {"measurement": "effect on absorbance of biofilms", "setting": "[2]; in TSB, 24 hours (data not shown)", "result": "reduced the absorbance of biofilms to near background"}, {"measurement": "effect on absorbance of S. aureus biofilms over time (FIG. 7 legend)", "setting": "[2]; lysostaphin 6.25 cg/ml, vancomycin 800 cg/ml, oxacillin 400 cg/ml", "result": "immediate and continuous drop in the absorbance"}, {"measurement": "growth after overnight incubation of catheters in TSB", "setting": "SA5 [3]; after 3 hours in bacterial solution", "result": "the catheters remained sterile"}, {"measurement": "clearing of bacterial solution by coated catheters", "setting": "SA5 [3]; catheters coated inside and outside, 5×10^4 CFU/ml SA5, 3 hrs", "result": "cleared the solution"}]}]}
